These are literature values, as cited in the CATMoS acute toxicity set (Mansouri et al. 2021).

The data set in a line: rat acute oral toxicity. Particulars: in vivo.
As to `CC1=C(C(=O)OC(C)C)C(c2cccc([N+](=O)[O-])c2)C(C(=O)OC2CN(C(c3ccccc3)c3ccccc3)C2)=C(N)N1` (stereo not given), the 50% lethal dose (LD50) – broadly, the dose expected to kill half of the subjects tested – is 1270 mg/kg.
On to `N#CC(=O)c1cccc(Cl)c1Cl`, for which the LD50 is 50 mg/kg.
Consider `C[N+]1(C)[C@@H]2CC[C@H]1C[C@@H](OC(=O)C(O)c1ccccc1)C2` (stereo not given in full), for which the median lethal dose (LD50) was 1200 mg/kg.
Turning to `Nc1cccc2c(N)cccc12`, the LD50 was 634 mg/kg.
With `CCCCCCCCCCCCOS(=O)(=O)O`, the LD50 was 1300 mg/kg.
In the case of `CC(=O)Oc1cc(C(F)(F)F)ccc1C(=O)O`, the LD50 is 402 mg/kg.
On to `COP(=O)(OC)SCn1c(=O)oc2cc(Cl)cnc21`, for which the median lethal dose (LD50) was 1180 mg/kg.
On to `C=C1C(=CC=C2CCCC3(C)C2CCC3C(C)CCCC(O)(C(F)(F)F)C(F)(F)F)CC(O)CC1O` (stereo not given), for which the LD50 was 0.0417 mg/kg.
In the case of `CCN(CC)CCOC(=O)Cc1ccc2c(c1)OCc1ccccc1C2=O`, the LD50 was 150 mg/kg.
As to `CN(C)c1nc2cc(Cl)ccc2o1`, the LD50 is 800 mg/kg.
`CC(C)=CC1C(C(=O)OC2CC(=O)C(C3C=CCC3)=C2C)C1(C)C` (stereo not given): the median lethal dose (LD50) was 1410 mg/kg.
Regarding `CCCCOCC(C)OCC(C)OCC(C)O` (stereo not given), the 50% lethal dose (LD50) was 1840 mg/kg.
In the case of `CCOP(=O)(OCC)OC(=CBr)c1ccc(Cl)cc1Cl`, the 50% lethal dose (LD50) was 21.4 mg/kg.
With `O=C(c1ccc2ccccc2n1)N1CCN=C1Nc1c(Cl)cccc1Cl`, the LD50 is 44 mg/kg.
Turning to `CCCCCCCCCCCCCCCCOC(=O)Cc1ccc(N(CCCl)CCCl)cc1`, the LD50 is 100 mg/kg.
Consider `O=[N+]([O-])C(Br)Br`, for which the LD50 is 86 mg/kg.
With `O=NN1CCCCCC1`, the LD50 is 336 mg/kg.
For the compound `OC(c1ccccc1)C1CCCCC1` (stereo not given), the median lethal dose (LD50) is 9300 mg/kg.
Consider `O=[N+]([O-])c1ccc(OP(=O)(CCl)c2ccccc2)cc1` (stereo not given), for which the LD50 was 203 mg/kg.
Take `O=C=Nc1ccc(Cc2ccc(N=C=O)cc2N=C=O)cc1`: the LD50 was 20000 mg/kg.
For `CCOP(=O)(OCC)OC(=C(Cl)Cl)c1cc(Cl)cc(Cl)c1`, the LD50 was 20 mg/kg.
As to `CC1(C)[C@@H]2CC[C@@]1(C)[C@H](OC(=O)CSC#N)C2`, the median lethal dose (LD50) is 1000 mg/kg.
Consider `CCOP(=S)(OCC)SC(=CC(=O)OC)C(=O)OC`, for which the LD50 is 80 mg/kg.
`Clc1ccc(C(OCCN2CCOCC2)c2ccccc2)cc1` (stereo not given): the LD50 is 710 mg/kg.
In the case of `CCN(CCCCCCOC(=O)c1ccc(OC)c(OC)c1)C1CCc2cc(OC)ccc2C1` (stereo not given), the LD50 was 2830 mg/kg.
For the compound `CN(C)C1CSSC1`, the LD50 was 420 mg/kg.
In the case of `Cc1ccc(NN)cc1`, the LD50 was 262 mg/kg.
As to `CN(C)c1ccc(N)cc1`, the LD50 was 48 mg/kg.
For `CCCC=C1OC(=O)c2ccccc21`, the LD50 was 1850 mg/kg.
On to `Cn1c2c(c3cc(N)ccc31)CCCC2`, for which the LD50 was 229 mg/kg.
For `C1CCC2OCCOCCOC3CCCCC3OCCOCCOC2C1` (stereo not given), the LD50 was 176 mg/kg.
`CC(C)(Oc1ccc(C(=O)c2ccc(Cl)cc2)cc1)C(=O)O`: the LD50 was 1240 mg/kg.
With `CCC(C)OC(CBr)c1cccc(Cl)c1` (stereo not given), the LD50 was 250 mg/kg.
For `CCCCCCCC(=O)NO`, the 50% lethal dose (LD50) was 10700 mg/kg.
For `ClCCOCCOCCOCCCl`, the LD50 is 180 mg/kg.
As to `O=C(O)CN(CCN(CC(=O)O)CC(=O)O)CCN(CC(=O)O)CC(=O)O`, the 50% lethal dose (LD50) was 4550 mg/kg.
As for `COc1c(Cl)c(Cl)c2[nH]c(C(F)(F)F)nc2c1Cl`, the 50% lethal dose (LD50) is 33 mg/kg.
For `C=CC(=O)OCC(CC)(COC(=O)C=C)COC(=O)C=C`, the median lethal dose (LD50) was 5190 mg/kg.
`CC(=O)CCc1ccc(O)cc1`: the LD50 was 1320 mg/kg.
Regarding `COc1c(OP(=S)(OC)OC)cnn(C)c1=O`, the median lethal dose (LD50) was 2.5 mg/kg.
For `Brc1ccccc1`, the LD50 is 2380 mg/kg.
As to `C=C(C)C1CC=C(CO)CC1` (stereo not given), the LD50 is 2100 mg/kg.
For `CCCOC(=O)c1cc(O)c(O)c(O)c1`, the 50% lethal dose (LD50) was 2100 mg/kg.
For the compound `C[Si]1(C)N[Si](C)(C)N[Si](C)(C)N[Si](C)(C)N1`, the LD50 was 100 mg/kg.
Turning to `Cc1ccc(C(=O)c2ccc(CC(=O)N3CCN(C)CC3)n2C)cc1`, the LD50 is 1000 mg/kg.
Turning to `FC(F)(F)c1nc2c(Br)cccc2[nH]1`, the LD50 is 28 mg/kg.
Take `CC(=O)OC1CC(C)CCC1C(C)C` (stereo not given): the 50% lethal dose (LD50) was 7620 mg/kg.
Take `C[N+]1(C)CCCCC1COC(=O)C(O)(c1ccccc1)c1ccccc1` (stereo not given): the LD50 was 5080 mg/kg.
Take `CC(C)=CCOC(=O)c1ccccc1`: the LD50 was 4700 mg/kg.
In the case of `C=CCOC(=O)OC(=C)C(=O)OCC=C`, the LD50 was 390 mg/kg.
Turning to `Nc1nc2ccc(Cl)cc2o1`, the median lethal dose (LD50) is 226 mg/kg.
For `N[C@@H]1C[C@H]1c1ccc(F)c(F)c1`, the median lethal dose (LD50) is 50 mg/kg.
For the compound `CCN(CC)CCOC1(c2ccc(Cl)cc2)CCCCC1`, the LD50 was 500 mg/kg.
For `COC(CC(C)=O)OC`, the median lethal dose (LD50) is 6200 mg/kg.
Regarding `Cc1ncoc1C#N`, the 50% lethal dose (LD50) is 735 mg/kg.
Take `CCCn1c(C)cc(OP(=S)(OCC)OCC)cc1=O`: the LD50 is 9.75 mg/kg.
For the compound `C=CC(=O)OCCN=C=O`, the LD50 is 200 mg/kg.
Regarding `c1ccc(CC2=NCCN2)cc1`, the 50% lethal dose (LD50) was 1200 mg/kg.
In the case of `FC(F)(F)c1ccc2nc(C(F)(F)F)[nH]c2c1`, the LD50 was 9.02 mg/kg.
Turning to `CCCCCC[C@H]1C(=O)O[C@H](C)[C@H](NC(=O)c2cccc(NC=O)c2O)C(=O)O[C@@H](C)[C@@H]1OC(=O)CC(C)C`, the median lethal dose (LD50) was 1470 mg/kg.
